Molecules are shown by their SMILES.

In general, IC50 refers to the concentration that gives 50% inhibition. Low readings indicate greater potency, high ones weaker potency. Broadly, the inhibition is how much of the control response was suppressed. Read a low inhibition as a weak effect.

The target in the first assay is T1, rh beta tryptase (Homo sapiens, UniProt P20231).
T1 construct: purchased Promega
T1 sequence (P20231 31-275): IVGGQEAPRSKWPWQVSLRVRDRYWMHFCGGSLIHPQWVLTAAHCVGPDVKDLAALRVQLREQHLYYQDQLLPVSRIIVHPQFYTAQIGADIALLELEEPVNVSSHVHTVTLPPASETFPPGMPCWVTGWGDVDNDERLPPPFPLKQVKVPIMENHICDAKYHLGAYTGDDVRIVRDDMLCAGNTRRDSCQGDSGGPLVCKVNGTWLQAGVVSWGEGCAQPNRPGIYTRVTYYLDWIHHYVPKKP
The experiment in a line: Tryptase inhibition test (cleavage of N-p-tosyl-Gly-Pro-Lys-para-nitroaniline, p-nitroaniline measured at 405 nm). As to conditions: concentration at which 50% of the tryptase enzyme activity is inhibited; substrate 0.6 mM, pH 7.4, 37° C. It is filed as biochemical. Put shortly:
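Screening at 10 μM gives percent inhibition, with IC50 derived for compounds above 70% inhibition. Enzyme: rh beta tryptase, 0.91 U/ml, pH 7.4 Tris HCl (100 mM), 5 mM Ca, 100 mg/ml heparin. After 5 min compound pre-incubation, 0.6 mM pNA substrate cleaved 5 min at 37 °C, monitored at 405 nm.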
`CCOCCCn1c(CCc2ccc(C(=N)N)cc2)nc2cc(C(=O)N(Cc3ccccc3)Cc3ccc(CN)cc3)ccc21` [Example 102, 2-[2-(4-amidinophenyl)ethyl]-1-(3-ethoxypropyl)-benzimidazol-5-yl-carboxylic acid-N-[4-(amino-methyl)-benzyl]-N-benzyl-amide]: the half-inhibitory concentration (IC50) came to 369 nM. On the same count and under the same terms, the figure for `N=C(N)c1ccc(CCc2nc3cc(C(=O)N(Cc4ccccc4)Cc4ccc(CN)cc4)ccc3n2CCc2ccccc2)cc1` [Example 107, 2-[2-(4-amidinophenyl)ethyl]-1-(2-phenylethyl)-benzimidazol-5-yl-carboxylic acid-N-[4-(amino-methyl)-benzyl]-N-benzyl-amide] is 344 nM; for `CCOCCCn1c(CCc2ccc(C(=N)N)cc2)nc2cc(C(=O)N(Cc3ccc(CN)cc3)CC3CCCCC3)ccc21` [Example 150, 2-[2-(4-amidinophenyl)ethyl]-1-(3-ethoxypropyl)-benzimidazol-5-yl-carboxylic acid-N-[4-(amino-methyl)-benzyl]-N-cyclohexylmethyl-amide] it is 292 nM. The same measure, in the same setting: to `CCOCCCn1c(CCc2ccc(C(=N)N)cc2)nc2cc(C(=O)N(CCCc3ccccc3)Cc3ccc(CN)cc3)ccc21` [Example 166, 2-[2-(4-amidinophenyl)ethyl]-1-(3-ethoxypropyl)-benzimidazol-5-yl-carboxylic acid-N-[4-(amino-methyl)-benzyl]-N-(3-phenylpropyl)-amide] belongs 274 nM.

The same assay, now with this note: inhibition of rh beta tryptase at 10 μM test substance; substrate N-p-tosyl-Gly-Pro-Lys-para-nitroaniline 0.6 mM, pH 7.4, 37° C., 5 minutes.
Compound `CCCCN(Cc1ccc(CN)cc1)C(=O)c1ccc2c(c1)nc(CCc1ccc(C(=N)N)cc1)n2Cc1ccc2c(c1)OCO2` [Example 100, 2-[2-(4-amidinophenyl)ethyl]-1-(1,3-benzodioxol-5-yl-methyl)-benzimidazol-5-yl-carboxylic acid-N-[4-(amino-methyl)-benzyl]-N-n-butyl-amide] registered an inhibition at 10 µM of 67%. Compound `CCCCN(CCCC)CCCn1c(CCc2ccc(C(=N)N)cc2)nc2cc(C(=O)N(Cc3ccccc3)Cc3ccc(CN)cc3)ccc21` [Example 103, 2-[2-(4-amidinophenyl)ethyl]-1-(3-di-n-butylaminopropyl)-benzimidazol-5-yl-carboxylic acid-N-[4-(amino-methyl)-benzyl]-N-benzyl-amide] registered an inhibition at 10 µM of 60%.

The compound `N=C(N)c1ccc(CCc2nc3cc(C(=O)N(Cc4ccccc4)Cc4ccc(CN)cc4)ccc3n2CCCNC(=O)Cc2ccccc2)cc1` [Example 104, 2-[2-(4-amidinophenyl)ethyl]-1-[3-(benzylcarbonylamino)-propyl]-benzimidazol-5-yl-carboxylic acid-N-[4-(amino-methyl)-benzyl]-N-benzyl-amide] displayed an inhibition at 10 µM of 74%. The same measure, in the same setting: the figure for `N=C(N)c1ccc(CCc2nc3cc(C(=O)N(Cc4ccccc4)Cc4ccc(CN)cc4)ccc3n2CC2CC2)cc1` [Example 106, 2-[2-(4-amidinophenyl)ethyl]-1-cyclopropylmethyl-benzimidazol-5-yl-carboxylic acid-N-[4-(amino-methyl)-benzyl]-N-benzyl-amide] is 58%.

`N=C(N)c1ccc(CCc2nc3cc(C(=O)N(Cc4ccccc4)Cc4ccc(CN)cc4)ccc3n2CCc2ccccc2)cc1` [Example 107, 2-[2-(4-amidinophenyl)ethyl]-1-(2-phenylethyl)-benzimidazol-5-yl-carboxylic acid-N-[4-(amino-methyl)-benzyl]-N-benzyl-amide] had an inhibition at 10 µM of 65%. On to `N=C(N)c1ccc(CCc2nc3cc(C(=O)N(Cc4ccccc4)Cc4ccc(CN)cc4)ccc3n2CCCN2CCOCC2)cc1` [Example 113, 2-[2-(4-amidinophenyl)ethyl]-1-[3-(morpholin-4-yl)-propyl]-benzimidazol-5-yl-carboxylic acid-N-[4-(amino-methyl)-benzyl]-N-benzyl-amide], for which the inhibition at 10 µM was determined as 56%. On the same count and under the same terms, to `N=C(N)c1ccc(CCc2nc3cc(C(=O)N(Cc4ccccc4)Cc4ccc(CN)cc4)ccc3n2CC2CCCO2)cc1` (stereo not shown) [Example 114, 2-[2-(4-amidinophenyl)ethyl]-1-(tetrahydrofuran-2-yl-methyl)-benzimidazol-5-yl-carboxylic acid-N-[4-(amino-methyl)-benzyl]-N-benzyl-amide] belongs 58%; to `CCOCCCn1c(CCc2ccc(C(=N)N)cc2)nc2cc(C(=O)N(Cc3ccc(CN)cc3)CC3CCCCC3)ccc21` [Example 150, 2-[2-(4-amidinophenyl)ethyl]-1-(3-ethoxypropyl)-benzimidazol-5-yl-carboxylic acid-N-[4-(amino-methyl)-benzyl]-N-cyclohexylmethyl-amide], 60%; to `N=C(N)c1ccc(CCc2nc3cc(C(=O)N(Cc4ccc(CN)cc4)CC4CCCCC4)ccc3n2CCCNC(=O)Cc2ccccc2)cc1` [Example 152, 2-[2-(4-amidinophenyl)ethyl]-1-[3-(benzylcarbonylamino)-propyl]-benzimidazol-5-yl-carboxylic acid-N-[4-(amino-methyl)-benzyl]-N-cyclohexylmethyl-amide], 65%.

`N=C(N)c1ccc(CCc2nc3cc(C(=O)N(Cc4ccc(CN)cc4)CC4CCCCC4)ccc3n2CC2CC2)cc1` [Example 154, 2-[2-(4-amidinophenyl)ethyl]-1-cyclopropylmethyl-benzimidazol-5-yl-carboxylic acid-N-[4-(amino-methyl)-benzyl]-N-cyclohexylmethyl-amide] registered an inhibition at 10 µM of 63%. Same read-out and setting: to `N=C(N)c1ccc(CCc2nc3cc(C(=O)N(Cc4ccc(CN)cc4)CC4CCCCC4)ccc3n2CCc2ccccc2)cc1` [Example 155, 2-[2-(4-amidinophenyl)ethyl]-1-(2-phenylethyl)-benzimidazol-5-yl-carboxylic acid-N-[4-(amino-methyl)-benzyl]-N-cyclohexylmethyl-amide] belongs 57%. On the same count and under the same terms, to `N=C(N)c1ccc(CCc2nc3cc(C(=O)N(Cc4ccc(CN)cc4)CC4CCCCC4)ccc3n2CCCN2CCOCC2)cc1` [Example 161, 2-[2-(4-amidinophenyl)ethyl]-1-[3-(morpholin-4-yl)-propyl]-benzimidazol-5-yl-carboxylic acid-N-[4-(amino-methyl)-benzyl]-N-cyclohexylmethyl-amide] belongs 56%.

With `N=C(N)c1ccc(CCc2nc3cc(C(=O)N(Cc4ccc(CN)cc4)CC4CCCCC4)ccc3n2CC2CCCO2)cc1` (stereo not shown) [Example 162, 2-[2-(4-amidinophenyl)ethyl]-1-(tetrahydrofuran-2-yl-methyl)-benzimidazol-5-yl-carboxylic acid-N-[4-(amino-methyl)-benzyl]-N-cyclohexylmethyl-amide], 10 µM produced 60% inhibition. On the same count and under the same terms, the figure for `CCOCCCn1c(CCc2ccc(C(=N)N)cc2)nc2cc(C(=O)N(CCCc3ccccc3)Cc3ccc(CN)cc3)ccc21` [Example 166, 2-[2-(4-amidinophenyl)ethyl]-1-(3-ethoxypropyl)-benzimidazol-5-yl-carboxylic acid-N-[4-(amino-methyl)-benzyl]-N-(3-phenylpropyl)-amide] is 57%. Regarding `CCCCN(CCCC)CCCn1c(CCc2ccc(C(=N)N)cc2)nc2cc(C(=O)N(CCCc3ccccc3)Cc3ccc(CN)cc3)ccc21` [Example 167, 2-[2-(4-amidinophenyl)ethyl]-1-(3-di-n-butylaminopropyl) benzimidazol-5-yl-carboxylic acid-N-[4-(amino-methyl)-benzyl]-N-(3-phenylpropyl)-amide], the inhibition at 10 µM was 52%.

Compound `N=C(N)c1ccc(CCc2nc3cc(C(=O)N(CCCc4ccccc4)Cc4ccc(CN)cc4)ccc3n2CCCNC(=O)Cc2ccccc2)cc1` [Example 168, 2-[2-(4-amidinophenyl)ethyl]-1-[3-(benzylcarbonylamino)-propyl]-benzimidazol-5-yl-carboxylic acid-N-[4-(amino-methyl)-benzyl]-N-(3-phenylpropyl)-amide] yielded an inhibition at 10 µM of 66%. On the same count and under the same terms, the figure for `N=C(N)c1ccc(CCc2nc3cc(C(=O)N(CCCc4ccccc4)Cc4ccc(CN)cc4)ccc3n2CCC2CCCCC2)cc1` [Example 169, 2-[2-(4-amidinophenyl)ethyl]-1-(2-cyclohexylethyl)-benzimidazol-5-yl-carboxylic acid-N-[4-(amino-methyl)-benzyl]-N-(3-phenylpropyl)-amide] is 52%; for `N=C(N)c1ccc(CCc2nc3cc(C(=O)N(CCCc4ccccc4)Cc4ccc(CN)cc4)ccc3n2CC2CC2)cc1` [Example 170, 2-[2-(4-amidinophenyl)ethyl]-1-cyclopropylmethyl-benzimidazol-5-yl-carboxylic acid-N-[4-(amino-methyl)-benzyl]-N-(3-phenylpropyl)-amide] it is 57%; for `Cc1ccc(Cn2c(CCc3ccc(C(=N)N)cc3)nc3cc(C(=O)N(CCCc4ccccc4)Cc4ccc(CN)cc4)ccc32)cc1` [Example 173, 2-[2-(4-amidinophenyl)ethyl]-1-(4-methylbenzyl)-benzimidazol-5-yl-carboxylic acid-N-[4-(amino-methyl)-benzyl]-N-(3-phenylpropyl)-amide] it is 51%. Still for that read-out and setting: to `N=C(N)c1ccc(CCc2nc3cc(C(=O)N(CCCc4ccccc4)Cc4ccc(CN)cc4)ccc3n2CCCN2CCOCC2)cc1` [Example 177, 2-[2-(4-amidinophenyl)ethyl]-1-[3-(morpholin-4-yl)-propyl]-benzimidazol-5-yl-carboxylic acid-N-[4-(amino-methyl)-benzyl]-N-(3-phenylpropyl)-amide] belongs 68%; to `N=C(N)c1ccc(CCc2nc3cc(C(=O)N(CCCc4ccccc4)Cc4ccc(CN)cc4)ccc3n2CC2CCCO2)cc1` (stereo not shown) [Example 178, 2-[2-(4-amidinophenyl)ethyl]-1-(tetrahydrofuran-2-yl-methyl)-benzimidazol-5-yl-carboxylic acid-N-[4-(amino-methyl)-benzyl]-N-(3-phenylpropyl)-amide], 51%. Consider `CCOCCCn1c(CCc2ccc(C(=N)N)cc2)nc2cc(C(=O)N(Cc3ccc(Cl)cc3)Cc3ccc(CN)cc3)ccc21` [Example 182, 2-[2-(4-amidinophenyl)ethyl]-1-(3-ethoxypropyl)-benzimidazol-5-yl-carboxylic acid-N-[4-(amino-methyl)-benzyl]-N-(4-chlorbenzyl)-amide], for which the “% Inhibition (10 μM)” value is 67%. As for `CCCCN(CCCC)CCCn1c(CCc2ccc(C(=N)N)cc2)nc2cc(C(=O)N(Cc3ccc(Cl)cc3)Cc3ccc(CN)cc3)ccc21` [Example 183, 2-[2-(4-amidinophenyl)ethyl]-1-(3-di-n-butylaminopropyl)-benzimidazol-5-yl-carboxylic acid-N-[4-(amino-methyl)-benzyl]-N-(4 chlorbenzyl)-amide], the “% Inhibition (10 μM)” value was 56%.

As for `N=C(N)c1ccc(CCc2nc3cc(C(=O)N(Cc4ccc(Cl)cc4)Cc4ccc(CN)cc4)ccc3n2CCCNC(=O)Cc2ccccc2)cc1` [Example 184, 2-[2-(4-amidinophenyl)ethyl]-1-[3-(benzylcarbonylamino)-propyl]-benzimidazol-5-yl-carboxylic acid-N-[4-(amino-methyl)-benzyl]-N-(4-chlorbenzyl)-amide], the “% Inhibition (10 μM)” value was 72%.
